Source: ChEMBL document CHEMBL3639063, “Heterocyclic compounds containing a pyrrolopyridine or benzimidazole core” (2015)

Biological target: Ribosomal protein S6 kinase alpha-3 (Homo sapiens, UniProt P51812)
Assay: Kinase Glo Assay: Human RSK2 protein, purchased from Invitrogen, is used to measure kinase activity utilizing Kinase Glo Plus (Promega) a homogeneous assay technology, which uses a luciferin-luciferase based ATP detection reagent to quantify residual ATP. The assay is performed using 0.75 nM His-RSK2, 0.75 uM ATP and 1.0 uM S6 Kinase/RSK Substrate Peptide 1 (Upstate, catalog #12-124), in assay buffer consisting of 25 mM HEPES, pH 7.5, 10 mM MgCl2, 5 mM MnCl2, 50 mM KCl, 0.2% BSA, 0.01% CHAPS, 100 uM Na3VO4, 0.5 mM DTT, and 1% DMSO. Solutions of test compounds at various concentrations are prepared by 1:3 fold serial dilution of a 1 mM solution of compound in DMSO. The DMSO solutions are further diluted with assay buffer to a final concentration of DMSO of 5%.The assay is performed in a 384 well, white, non-binding plate (Corning, catalogue #3574). Solutions of test compounds (10 uL) are transferred to a dry assay plate, followed by addition of 20 uL kinase.

Ribosomal protein S6 kinase alpha-3, sequence (P51812 whole entry): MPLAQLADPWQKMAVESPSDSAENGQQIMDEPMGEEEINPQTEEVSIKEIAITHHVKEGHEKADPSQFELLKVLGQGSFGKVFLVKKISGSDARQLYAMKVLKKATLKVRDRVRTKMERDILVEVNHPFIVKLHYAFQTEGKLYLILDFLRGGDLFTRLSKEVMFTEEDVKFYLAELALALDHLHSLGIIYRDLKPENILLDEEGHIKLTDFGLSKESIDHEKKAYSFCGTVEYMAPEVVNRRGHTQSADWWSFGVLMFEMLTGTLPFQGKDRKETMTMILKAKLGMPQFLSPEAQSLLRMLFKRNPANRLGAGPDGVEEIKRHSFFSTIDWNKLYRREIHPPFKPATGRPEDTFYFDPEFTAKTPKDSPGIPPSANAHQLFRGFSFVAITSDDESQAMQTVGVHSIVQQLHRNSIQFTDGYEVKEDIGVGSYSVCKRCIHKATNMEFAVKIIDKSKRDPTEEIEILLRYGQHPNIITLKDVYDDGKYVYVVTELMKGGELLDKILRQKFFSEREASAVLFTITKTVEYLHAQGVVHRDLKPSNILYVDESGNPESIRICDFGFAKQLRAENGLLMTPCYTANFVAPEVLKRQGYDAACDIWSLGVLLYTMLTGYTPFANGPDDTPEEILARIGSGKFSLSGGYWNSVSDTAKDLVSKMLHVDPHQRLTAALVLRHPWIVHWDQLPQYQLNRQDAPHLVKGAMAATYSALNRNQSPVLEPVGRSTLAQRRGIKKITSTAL

| SMILES | IC50 [µM] |
| --- | --- |
| CC1(C)CNC(=O)c2cc3ccc(C(=O)Nc4cc(C(C)(C)C)on4)nc3n2C1 | 0.175 |
| O=C(Nc1cccc(-c2c[nH]cn2)c1)c1ccc2cc3n(c2n1)CCCNC3=O | 0.017 |
